Holding throughout (type): in vivo
Experiment [1] deals with C2186R edited Oryza sativa plants. In words: Herbicide spray tolerance of C2186R edited plants. Conditions: for tolerance compared with wild-type control: 5 g.a.i./mu, 14 d later, FIG. 6. As for the experimental part:
(§1) Multiple Oryza sativa varieties such as Wanzhijing 006, Nanjing 9108, and Jiahe 218 were used as experimental materials. The base editor constructed above was transformed into the Oryza sativa plants by A. tumefaciens to obtain gene-edited plants. Emerging seedlings were screened with a sethoxydim-containing medium at a concentration of SET-2: 2 mg/L. Or, edited seedlings were planted in a cultivation room. The edited seedlings and the control plants were sprayed with sethoxydim at a concentration of 0.5 g/L (corresponding to a field application dosage of 10 g. a.i/mu), and a survival rate of the seedlings was counted 10 d later.
(§2) Through screening cultivation, herbicide-resistant plants were screened out on a sethoxydim-containing medium. […] In addition, herbicide-resistant plants were also screened out in the cultivation room.
(§3) The I1879V and C2186R edited Oryza sativa plants obtained in Example 1 were planted, and the resistance to other types of herbicides was tested, such as phenthodim, quizalofop-p, fenoxaprop-p-ethyl, clethodim, haloxyfop-p-methyl, fenoxaprop, and butyclofen.
(§4) Dibble Oryza sativa plants at the seedling stage in the field were selected and sprayed with phenthodim at 20 g.a.i./mu (4 times a recommended dosage), and then results were observed.
(§5) Quizalofop-p and fenoxaprop-p-ethyl were each applied at 5 g.a.i./mu to I1879V edited plants and C2186R edited plants, and results were observed 14 d later.

Experiment [2] has as its system I1879V edited Oryza sativa plants. In words: Herbicide spray tolerance of I1879V edited plants. The note with it: for tolerance compared with wild-type control: 5 g.a.i./mu, FIG. 6; for phytotoxicity observed: field seedlings. The procedure: as §1
(§6) For I1879V edited Oryza sativa plants, the dosage of sethoxydim was further increased to a corresponding field application dosage of 15 g. a.i/mu. The dosage of sethoxydim was further increased to 30 g. a.i/mu.
as §3, §4, §5
The tolerance of the I1879V edited plants to clethodim, haloxyfop-p-methyl, fenoxaprop, and butyclofen was tested, where the clethodim, haloxyfop-p-methyl, and fenoxaprop were each applied at concentrations of 5 g.a.i./mu (1×) and 10 g.a.i./mu (2×); and the butyclofen was applied at concentrations of 10 g.a.i./mu (1×) and 20 g.a.i./mu (2×). After the herbicide was applied for 20 d, the growth of the edited plants was observed and the herbicide resistance of the edited plants was counted.

Experiment [3] has the same test system. Description: Screening of emerging seedlings on sethoxydim-containing medium. Conditions: 2 mg/L, FIG. 2. The procedure:
as §1, §2

Experiment [4] concerns wild-type Oryza sativa plants. In words: Herbicide spray on wild-type control plants. Conditions: for phytotoxicity observed: field seedlings. The procedure: as §1, §6, §4
[5] abbreviates: 15 g. a.i/mu, 14 d later, FIG. 4.
The mark [6] stands for this setting: 20 g.a.i./mu (4 times recommended dosage), 7 d after spraying.
[7] abbreviates: 20 g.a.i./mu, 20 d after application, FIG. 5.

Regarding `C[C@@H](Oc1ccc(Oc2cnc3cc(Cl)ccc3n2)cc1)C(=O)O` [Quizalofop-p, quizalofop-p], the “tolerance compared with wild-type control” value in experiment [1] and in experiment [2] (14 d later) was “failed to produce tolerance” each time.
Turning to `CCOC(=O)[C@@H](C)Oc1ccc(Oc2nc3ccc(Cl)cc3o2)cc1` [fenoxaprop-p-ethyl], the “tolerance compared with wild-type control” value in experiment [1] and in experiment [2] (14 d later) was “failed to produce tolerance” in each case.
For the compound `CCC/C(=N\OCC)C1=C(O)CC(CC(C)SCC)CC1=O` (stereo not drawn) [sethoxydim], the “herbicide tolerance of edited seedlings after spraying” value in experiment [1] (sprayed at 0.5 g/L (field application dosage 10 g. a.i/mu), 10 d, FIG. 3) is given as “able to tolerate the herbicide”. Moreover, in experiment [2] (setting [5]), the “growth of edited material after herbicide” value is on record as “grew normally”. The phytotoxicity entry in experiment [2] (30 g. a.i/mu, 20 d) is on record as “about 30%”. The “herbicide tolerance of edited seedlings on herbicide-containing medium” value in experiment [3] was “able to tolerate the herbicide”. Further, the “state of control plants after herbicide” value in experiment [4] (setting [5]) was “obviously yellow and dead”. Also, the “survival of wild-type plants after herbicide” value in experiment [4] (30 g. a.i/mu, 20 d) is “all wild-type plants died”.
As to phenthodim, the phytotoxicity observed entry in experiment [1] (20 g.a.i./mu, field seedlings) was “obvious phytotoxicity”; in experiment [2] (setting [6]), “no visible phytotoxicity”; in experiment [2] (setting [7]), “no obvious phytotoxicity”; in experiment [4] (setting [6]), “obvious chlorosis and spots”; in experiment [4] (setting [7]) it was “serious phytotoxicity”.
